According to patent US8691749B2, “Peptide and use thereof” (Ensoltek Co., Ltd., priority 2009, dated 2014):

What was measured:
TGF-beta1 signaling = TGF-beta1 signaling inhibition: phosphorylated Smad2 Western blot in HepG2 cells; assay type: cell-based
Protocol: Inhibition of TGF-beta1 signaling by the peptide of Example 1 was confirmed in accordance with the following experimental method.
Treatment of HepG2 cells with TGF-beta1 is known to result in apoptosis, during which Smad2 is first phosphorylated (Park T J. et al., Mol. Carcinog. 47:784-796, 2008; and Gressner A M. et al., J Hepatol. 26:1079-1092, 1997). Using these properties, the experiment was carried out as follows. 1×10^6 of HepG2 cells (ATCC; American Type Culture Collection) were seeded in a 60 mm dish, stabilized overnight, and then depleted of nutrients by serum-free media (SFM) for 24 hours. Prior to treatment of the cells with the peptide of Example 1, 5 ng/mL of TGF-beta1 (PromoKine, Germany) and the above peptide (1, 5, and 25 μM) were subjected to pre-incubation at 37° C. for 1 hour. Further, DMSO (2 μl/mL) was also pre-incubated with TGF-beta1 (5 ng/mL) at 37° C. for 1 hour. Then, the cells were treated with the pre-incubated solutions for 30 minutes, followed by extraction of proteins. In addition, the cells were previously treated only with […] of SB431542 (TOCRIS, USA), an inhibitor of the TGF-beta receptor, followed by incubation for 1 hour, and then treated with TGF-beta1 (5 ng/mL) for 30 minutes. Then, the cells were homogenized on ice in Radioimmunoprecipitation (RIPA) Lysis Buffer (Millipore) {50 mM Tris-HCl (pH 7.4), 150 mM NaCl, 0.25% deoxycholic acid, 1% NP-40, 1 mM ethylenediaminetetraacetic acid (EDTA), 1 mM phenylmethylsulfonyl fluoride (PMSF), 40 mM NaF, 1 mM Na3VO4, 1 mM dithiothreitol (DTT)}. […]
FIG. 3 illustrates the Western blot results (Lane 1: non-treated HepG2 cells, Lane 2: TGF-beta1-treated cells, Lane 3: TGF-beta1/SB431542-treated cells, Lanes 4, 5 and 6: cells treated with 1, 5, and 25 μM of peptide/TGF-beta1, respectively, and Lane 7: TGF-beta1/DMSO-treated cells). […] The bottom of FIG. 3 illustrates the Coomassie Blue staining results of the membrane used in Western blot, showing that the quantity of the protein is the same in all the lanes.

aggrecan gene = experiment: Aggrecan gene expression in disc tissues by real-time PCR in disc degeneration model; assay type: in vivo, rabbits (New Zealand white rabbits); conditions: Week 4 after first administration; 0.5 mM/animal intradiscal at Weeks 0 and 2
Protocol: Real-time PCR was carried out to examine a gene expression level of aggrecan, which is a representative extracellular matrix component in disc tissues.
In the same manner as in Example 2-1, animals were prepared and divided into two groups, to each of which DMSO and the peptide of Example 1 (0.5 mM/animal) were administered by local intradiscal injection. The administration point for each group was 4 weeks after the induction of disc degeneration and 2 weeks thereafter. After the second administration, the animals were raised for 2, 4, and 8 weeks, respectively. […]
The quantity of mRNA of GAPDH and aggrecan was examined by a Prism 7900HT (ABI) using PowerSYBR Green PCR Master Mix (Applied Biosystems Inc.). […] GAPDH was selected as a reference gene, and a CT value difference (ΔCT) between the reference gene and the aggrecan gene was calculated. In addition, a CT value difference (ΔΔCT) between the normal disc and the Example 1 peptide-administered disc (or DMSO-administered disc) was calculated. Then, 2^(−ΔΔCT) was calculated and expressed in terms of percentage relative to the normal disc value.

degenerated disc tissue = experiment: Disc regeneration effects by disc tissue staining (H&E) in disc degeneration model; assay type: in vivo, rabbits (New Zealand white rabbits); conditions: 0.5 mM/animal, local intradiscal injection twice
Protocol: 30 rabbits (New Zealand white rabbits; Orient Bio Inc.), weighing 3 to 3.5 kg, were prepared irrespective of sex.
The rabbits were anesthetized by intramuscular injection of 5 mg/kg of xylazine (Rompun, Bayer) and 35 mg/kg of ketamine hydrochloride (Ketalar, Pfizer). Prior to the procedure, lateral plain X-ray using a fluoroscopic apparatus (Model VPX-200; Toshiba Co.) was obtained to establish the pre-injection baseline height of intervertebral disc. The baseline control refers to a standard for measurement of a disc space. After the rabbits were positioned on the laboratory table, L23, L34, L45, and L56 disc levels were confirmed by the machine, and annulus fibrosus was stabbed into the posterolateral side of the disc at L23, L45, and L56 levels, using an 18G needle. After recovery from the anesthesia, the animals were housed in a cage under the following breeding conditions: temperature 20-25° C., humidity 10%-50%, and Light/Dark (L/D) cycle: (light from 08:00 a.m. to 20:00 p.m.). All animals were fed once a day. X-ray photographs were taken 2 and 4 weeks after the initial annular puncture. The X-ray was taken after anesthesia. Based on the results of X-ray, an intervertebral disc height (IVD height) was measured. From the measurement results, disc degeneration degree was quantified by a modification of the method disclosed in Lu et al., Spine. 22:1828-34, 1997.
Thereafter, experiments were carried out for two separate groups, DMSO-administered control group and Example 1 peptide-administered experimental group, and the rabbits were euthanized by injection of ketamine (25 mg/kg) and sodium pentobarbital (1.2 g/kg, Nembutal, Ovation) according to the planned schedule, followed by extraction of the disc for histological and biochemical analysis, respectively.
Disc-degenerated rabbits from Section 2-1 were divided into two groups. Each group was given dimethyl sulfoxide (DMSO) and the peptide of Example 1 (0.5 mM/animal) by local intradiscal injection twice. The administration point for each group was 4 weeks after the induction of disc degeneration and 2 weeks thereafter. After the second administration, the animals were raised for 2, 4, and 8 weeks, respectively. At Weeks 4, 6, and 10 after the first administration of each of the Example 1 peptide and DMSO, the corresponding respective disc tissues were extracted and fixed in formalin. The fixed disc tissues were embedded in paraffin, and serial sections having a thickness of […] along the sagittal plane were prepared. Of these sections, two mid-sagittal sections were stained with hematoxylin and eosin (H&E). For the comparison with the normal disc tissue, the disc was extracted, treated and stained from the rabbits with no induction of disc degeneration according to the same method described above. […]

| Molecule | phosphorylation of Smad2 (TGF-beta1 signaling; pre-treated with 1004 of SB431542 for 1 hour, then TGF-beta1 5 ng/mL for 30 minutes) | aggrecan gene expression as compared to the DMSO-administered disc tissue (aggrecan gene) | phosphorylation degree of Smad2 (TGF-beta1 signaling; peptide 1, 5 and 25 μM pre-incubated with TGF-beta1 5 ng/mL for 1 hour, cells treated 30 minutes) | extent of TGF-beta1 signaling inhibition (TGF-beta1 signaling; peptide 1, 5 and 25 μM, compared with SB431542) | distinction between nucleus pulposus and annulus fibrosus (degenerated disc tissue; Week 10) | extracellular matrix components in disc tissue (degenerated disc tissue; Week 10) | size of disc as compared to the DMSO-administered disc tissue (degenerated disc tissue; Week 10) | staining of cell nuclei in the nucleus pulposus region (degenerated disc tissue; Week 10, x400) |
| --- | --- | --- | --- | --- | --- | --- | --- | --- |
| NC(=O)c1ccc(-c2nc(-c3ccc4c(c3)OCO4)c(-c3ccccn3)[nH]2)cc1 [SB431542, reference compound] | complete inhibition of phosphorylation | – | – | – | – | – | – | – |
| LQVVYLH [Example 1] | – | increase in the aggrecan gene expression | decreased in a dose-dependent manner | does not completely inhibit TGF-beta1 signaling | discernible between the nucleus pulposus and the annulus fibrosus | abundance of extracellular matrix components | increased size of disc | vivid staining of the cell nuclei |
